# Test results from PubChem BioAssay AID1259407 (Chemical Carcinogenesis Research Information System (CCRIS), 2018).
# The source made the active and inactive calls. The rule behind the calls is not given here.
# System: CCRIS mutagenicity, Ames/micronucleus/aberration tests
# Experiment: CCRIS mutagenicity studies
# Conditions: Test System: AMES SALMONELLA TYPHIMURIUM, Method: STANDARD PLATE
# [1] = Strain/Indicator: TA97, Metabolic Activation: NONE
# [2] = Strain/Indicator: TA100, Metabolic Activation: NONE
# [3] = Strain/Indicator: TA1538, Metabolic Activation: NONE
Compound,mutagenic call [1],"mutagenic call (Strain/Indicator: TA97, Metabolic Activation: RAT, LIVER, S-9)",mutagenic call [2],"mutagenic call (Strain/Indicator: TA100, Metabolic Activation: RAT, LIVER, S-9)","mutagenic call (Strain/Indicator: TA104, Metabolic Activation: NONE)","mutagenic call (Strain/Indicator: TA104, Metabolic Activation: RAT, LIVER, S-9)","mutagenic call (Strain/Indicator: TA1537, Metabolic Activation: NONE)","mutagenic call (Strain/Indicator: TA1537, Metabolic Activation: RAT, LIVER, S-9)",mutagenic call [3],"mutagenic call (Strain/Indicator: TA1538, Metabolic Activation: RAT, LIVER, S-9)","mutagenic call (Strain/Indicator: TA97, Metabolic Activation: RAT, LIVER, S-9, AROCLOR 1254)","mutagenic call (Strain/Indicator: TA98, Metabolic Activation: NONE)","mutagenic call (Strain/Indicator: TA98, Metabolic Activation: RAT, LIVER, S-9, AROCLOR 1254)","mutagenic call (Strain/Indicator: TA100, Metabolic Activation: RAT, LIVER, S-9, AROCLOR 1254)","mutagenic call (Strain/Indicator: TA102, Metabolic Activation: NONE)","mutagenic call (Strain/Indicator: TA102, Metabolic Activation: RAT, LIVER, S-9, AROCLOR 1254)","mutagenic call (Strain/Indicator: TA1535, Metabolic Activation: NONE)","mutagenic call (Strain/Indicator: TA1535, Metabolic Activation: RAT, LIVER, S-9, AROCLOR 1254)","mutagenic call (Strain/Indicator: TA1538, Metabolic Activation: RAT, LIVER, S-9, AROCLOR 1254)","mutagenic call (Strain/Indicator: TA100, Metabolic Activation: GUINEA PIG, LIVER, S-9, KANECLOR 500)"
CN(C)CCCn1cc[n+](C)c1/C=N/O,inactive; negative,inactive; negative,inactive; negative,inactive; negative,inactive; negative,inactive; negative,inactive; negative,inactive; negative,inactive; negative,inactive; negative,–,–,–,–,–,–,–,–,–,–
C=CCc1ccc(O)c(O)c1,inactive; negative,–,inactive; negative,–,–,–,–,–,inactive; negative,–,inactive; negative,inactive; negative,inactive; negative,inactive; negative,active; positive,inactive; negative,inactive; negative,inactive; negative,inactive; negative,–
CC(=O)ON(C(C)=O)c1ccc(Oc2ccccc2)cc1,–,–,–,–,–,–,–,–,–,–,–,–,–,–,–,–,–,–,–,active; positive
